Columns and labels:
Assay in all cases: relative viability (nuclei count vs DMSO), 5 days (fraction); higher = more cells survive
[1] = test system: HCC-366
How it was run: (§1)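 Cells from lung cancer lines were seeded into 1536-well plates and, one day later, dosed by pin tool. Treatments were either a single drug or a fixed dose of an anchor drug with five library-drug doses (not always all listed) in √10 steps. After 5 days, nuclei were stained in a one-step fixation (final 0.05% Triton X-100, 1% formaldehyde, 1 ug/ml Hoechst) and counted on 4× images, and relative viability is the treated-to-vehicle nuclei ratio, as the median of duplicate plates.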

[2] = test system: NCI-H441
How it was run: as §1

[3] = test system: BEN
How it was run: as §1

[4] = test system: HCC-15
How it was run: as §1

[5] = test system: NCI-H1734
How it was run: as §1

[6] = test system: NCI-H1975
How it was run: as §1

[7] = test system: LCLC-103H
How it was run: as §1

[8] = test system: NCI-H1355
How it was run: as §1

[9] = test system: NCI-H1755
How it was run: as §1

[10] = test system: NCI-H2085
How it was run: as §1

[11] = test system: HCC-44
How it was run: as §1

With `COc1cc(N2CCC(C(N)=O)CC2)ccc1Nc1nc(N)c(Cl)c(Nc2ccccc2S(=O)(=O)C(C)C)n1` [HG-5-88-01] + C[C@]1(O)C[C@@H](c2nc(-c3ccc4ccc(-c5ccccc5)nc4c3)c3c(N)nccn32)C1 [Linsitinib] (partner 1 µM) the relative viability ([1]; first compound 0.04 µM) was 0.573, the relative viability ([1]; first compound 0.1265 µM) was 0.558 and the relative viability ([1]; first compound 0.4 µM) was 0.492. For the same molecule, the relative viability ([1]; first compound 1.265 µM) was 0.608, the relative viability ([1]; first compound 4 µM) was 0.912 and the relative viability ([2]; first compound 0.04 µM) was 0.662. The relative viability ([2]; first compound 0.1265 µM) was 0.536, the relative viability ([2]; first compound 0.4 µM) was 0.821 and the relative viability ([2]; first compound 1.265 µM) was 0.399. The relative viability ([2]; first compound 4 µM) was 0.586, the relative viability ([3]; first compound 0.04 µM) was 0.817 and the relative viability ([3]; first compound 0.1265 µM) was 0.968. It also gave a relative viability ([3]; first compound 0.4 µM) of 0.899, a relative viability ([3]; first compound 1.265 µM) of 0.767 and a relative viability ([3]; first compound 4 µM) of 1.17. For the same molecule, the relative viability ([4]; first compound 0.04 µM) was 0.862, the relative viability ([4]; first compound 0.1265 µM) was 0.837 and the relative viability ([4]; first compound 0.4 µM) was 0.92. The relative viability ([4]; first compound 1.265 µM) was 0.835, the relative viability ([4]; first compound 4 µM) was 0.763 and the relative viability ([5]; first compound 0.04 µM) was 0.811. The relative viability ([5]; first compound 0.1265 µM) was 0.851, the relative viability ([5]; first compound 0.4 µM) was 0.964 and the relative viability ([5]; first compound 1.265 µM) was 0.885. For the same molecule, the relative viability ([5]; first compound 4 µM) was 1.02, the relative viability ([6]; first compound 0.04 µM) was 0.995 and the relative viability ([6]; first compound 0.1265 µM) was 1. For the same molecule, the relative viability ([6]; first compound 0.4 µM) was 0.682, the relative viability ([6]; first compound 1.265 µM) was 0.859 and the relative viability ([6]; first compound 4 µM) was 0.497. For the same molecule, the relative viability ([7]; first compound 0.04 µM) was 0.986, the relative viability ([7]; first compound 0.1265 µM) was 1.18 and the relative viability ([7]; first compound 0.4 µM) was 1.03. The relative viability ([7]; first compound 1.265 µM) was 1.03, the relative viability ([7]; first compound 4 µM) was 1.21 and the relative viability ([8]; first compound 0.04 µM) was 0.863. For the same molecule, the relative viability ([8]; first compound 0.1265 µM) was 0.85, the relative viability ([8]; first compound 0.4 µM) was 0.864 and the relative viability ([8]; first compound 1.265 µM) was 0.705. It also gave a relative viability ([8]; first compound 4 µM) of 0.767, a relative viability ([9]; first compound 0.1265 µM) of 0.902 and a relative viability ([9]; first compound 0.4 µM) of 1.01. It also gave a relative viability ([9]; first compound 1.265 µM) of 0.983, a relative viability ([9]; first compound 4 µM) of 1.09 and a relative viability ([10]; first compound 0.04 µM) of 0.913. For the same molecule, the relative viability ([10]; first compound 0.1265 µM) was 0.924, the relative viability ([10]; first compound 0.4 µM) was 0.809 and the relative viability ([10]; first compound 1.265 µM) was 0.748. It also gave a relative viability ([10]; first compound 4 µM) of 0.92, a relative viability ([11]; first compound 0.04 µM) of 0.806 and a relative viability ([11]; first compound 0.1265 µM) of 0.672. The relative viability ([11]; first compound 0.4 µM) was 0.56, the relative viability ([11]; first compound 1.265 µM) was 0.648 and the relative viability ([11]; first compound 4 µM) was 0.751.
